Laboratory results: PubChem BioAssay AID330 (DTP/NCI, 2004)
“And” between values parts separate entries of the source, which are not always exact repeats. Identical values can stand only once. Inconclusive results and toxic doses are left out. Rule for the calls: active = survival T/C of 150% or more; inactive = T/C below 125% in these data.

Test system: P388 leukemia ip, CD2F1 mice, survival T/C
Test: NCI In Vivo Anticancer Drug Screen. Data for tumor model P388 Leukemia (intraperitoneal) in CD2F1 (CDF1) mice
Settings: endpoint: median survival time, higher = longer survival
In short: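 Mice carrying the transplanted tumor received test compound or vehicle. Survival was recorded in each group, and the value is the treated-group measurement divided by that of the vehicle-treated control group.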

[1] = dose: 100.0 mg/kg/injection, schedule: Q01DX001 (ip), vehicle: Klucel (hydroxypropylcellulose) (HPC)
[2] = dose: 200.0 mg/kg/injection, schedule: Q01DX001 (ip), vehicle: Klucel (hydroxypropylcellulose) (HPC)
[3] = dose: 12.5 mg/kg/injection, schedule: Q01DX009 (ip), vehicle: saline with Tween-80
[4] = dose: 25.0 mg/kg/injection, schedule: Q01DX009 (ip), vehicle: saline with Tween-80
[5] = dose: 50.0 mg/kg/injection, schedule: Q01DX009 (ip), vehicle: saline with Tween-80
[6] = dose: 100.0 mg/kg/injection, schedule: Q01DX009 (ip), vehicle: saline with Tween-80
[7] = dose: 200.0 mg/kg/injection, schedule: Q01DX009 (ip), vehicle: saline with Tween-80
[8] = dose: 25.0 mg/kg/injection, schedule: Q01DX005 (ip), vehicle: Klucel (hydroxypropylcellulose) (HPC)
[9] = dose: 50.0 mg/kg/injection, schedule: Q01DX005 (ip), vehicle: Klucel (hydroxypropylcellulose) (HPC)

Measured: T/C

CS(=O)(=O)OCC(O)C(O)COS(C)(=O)=O (stereo not given)
inactive: dose: 50.0 mg/kg/injection, schedule: Q01DX001 (ip), vehicle: Klucel (hydroxypropylcellulose) (HPC) 106 % of control | [1] 110 % of control | dose: 100.0 mg/kg/injection, schedule: Q01DX001 (ip), vehicle: saline 100 % of control | dose: 100.0 mg/kg/injection, schedule: Q01DX001 (oral), vehicle: saline 100 % of control | dose: 100.0 mg/kg/injection, schedule: Q01DX009 (oral), vehicle: saline 104 % of control | dose: 100.0 mg/kg/injection, schedule: Q03HX008 (ip), vehicle: saline 100 % of control | dose: 100.0 mg/kg/injection, schedule: Q03HX016 (ip), vehicle: saline 100 % of control | dose: 100.0 mg/kg/injection, schedule: Q03HX024 (ip), vehicle: saline 100 % of control | dose: 100.0 mg/kg/injection, schedule: Q04DX003 (ip), vehicle: saline with Tween-80 109 % of control | dose: 100.0 mg/kg/injection, schedule: Q04DX003 (ip), vehicle: saline 104 % of control | dose: 100.0 mg/kg/injection, schedule: Q08DX002 (ip), vehicle: saline 104 % of control | [2] 110 % of control | dose: 200.0 mg/kg/injection, schedule: Q01DX001 (ip), vehicle: saline 100 % of control | dose: 200.0 mg/kg/injection, schedule: Q01DX001 (oral), vehicle: saline 100 % of control | dose: 200.0 mg/kg/injection, schedule: Q01DX009 (oral), vehicle: saline 104 % of control | dose: 200.0 mg/kg/injection, schedule: Q03HX008 (ip), vehicle: saline 100 % of control | dose: 200.0 mg/kg/injection, schedule: Q03HX016 (ip), vehicle: saline 100 % of control | dose: 200.0 mg/kg/injection, schedule: Q03HX024 (ip), vehicle: saline 100 % of control | dose: 200.0 mg/kg/injection, schedule: Q04DX003 (ip), vehicle: saline with Tween-80 104 % of control | dose: 200.0 mg/kg/injection, schedule: Q04DX003 (ip), vehicle: saline 100 % of control | dose: 200.0 mg/kg/injection, schedule: Q08DX002 (ip), vehicle: saline 104 % of control | dose: 400.0 mg/kg/injection, schedule: Q01DX001 (ip), vehicle: saline 100 % of control | dose: 400.0 mg/kg/injection, schedule: Q01DX001 (oral), vehicle: saline 109 % of control | dose: 400.0 mg/kg/injection, schedule: Q01DX009 (ip), vehicle: saline 90 % of control | dose: 400.0 mg/kg/injection, schedule: Q01DX009 (oral), vehicle: saline 100 % of control | dose: 400.0 mg/kg/injection, schedule: Q03HX008 (ip), vehicle: saline 109 % of control | dose: 400.0 mg/kg/injection, schedule: Q03HX016 (ip), vehicle: saline 100 % of control | dose: 400.0 mg/kg/injection, schedule: Q03HX024 (ip), vehicle: saline 100 % of control | dose: 400.0 mg/kg/injection, schedule: Q04DX003 (ip), vehicle: saline with Tween-80 118 % of control | dose: 400.0 mg/kg/injection, schedule: Q04DX003 (ip), vehicle: saline 104 % of control | dose: 400.0 mg/kg/injection, schedule: Q08DX002 (ip), vehicle: saline 104 % of control | dose: 800.0 mg/kg/injection, schedule: Q01DX001 (ip), vehicle: saline 109 % of control | dose: 800.0 mg/kg/injection, schedule: Q01DX001 (oral), vehicle: saline 100 % of control | dose: 800.0 mg/kg/injection, schedule: Q01DX009 (oral), vehicle: saline 113 % of control | dose: 800.0 mg/kg/injection, schedule: Q03HX008 (ip), vehicle: saline 109 % of control | dose: 800.0 mg/kg/injection, schedule: Q03HX016 (ip), vehicle: saline 100 % of control | dose: 800.0 mg/kg/injection, schedule: Q03HX024 (ip), vehicle: saline 100 % of control | dose: 800.0 mg/kg/injection, schedule: Q04DX003 (ip), vehicle: saline 114 % of control | dose: 800.0 mg/kg/injection, schedule: Q08DX002 (ip), vehicle: saline 104 % of control

CC(=O)OC/C=C(C)/C=C/C=C(C)/C=C/C1=C(C)CCCC1(C)C
inactive: dose: 200.0 mg/kg/injection, schedule: Q01DX005 (ip), vehicle: saline with Tween-80 95 % of control | dose: 400.0 mg/kg/injection, schedule: Q01DX005 (ip), vehicle: saline with Tween-80 97 % of control | dose: 800.0 mg/kg/injection, schedule: Q01DX005 (ip), vehicle: saline with Tween-80 97 % of control | dose: 1600.0 mg/kg/injection, schedule: Q01DX005 (ip), vehicle: saline with Tween-80 101 % of control

Cc1ccc(C(O)(CS(C)=O)c2ccco2)cc1 (stereo not given)
inactive: [3] 100 % of control | [4] 100 % of control | [5] 100 % of control

O=C1C(Cl)=C(NCCCN(CCO)CCO)C(=O)c2ccccc21
inactive: dose: 12.5 mg/kg/injection, schedule: Q01DX009 (ip), vehicle: saline 100 % of control | dose: 25.0 mg/kg/injection, schedule: Q01DX009 (ip), vehicle: saline 107 % of control and 88 % of control | dose: 50.0 mg/kg/injection, schedule: Q01DX009 (ip), vehicle: saline 107 % of control and 108 % of control

CNc1ccccc1C(=O)C(=O)O
inactive: [6] 105 % of control | [7] 102 % of control | dose: 400.0 mg/kg/injection, schedule: Q01DX009 (ip), vehicle: saline with Tween-80 100 % of control

C=C1C(=O)OC2/C=C(\CO)C3OC3C3OC3(C)CC(OC(=O)/C(=C/C)COC(C)=O)C12 (stereo not given)
inactive: [8] 98 % of control | [9] 114 % of control

C/C=C/c1cc2c(c(=O)o1)C(=O)[C@@H](O)[C@H](C)O2
inactive: [3] 101 % of control | [4] 101 % of control | dose: 44.0 mg/kg/injection, schedule: Q01DX009 (ip), vehicle: saline with Tween-80 112 % of control | [5] 110 % of control | dose: 66.0 mg/kg/injection, schedule: Q01DX009 (ip), vehicle: saline with Tween-80 121 % of control

CN(C)CCCNc1ccc2ccc3c(NCCCN(C)C)ccc4ccc1c2c43
inactive: dose: 12.5 mg/kg/injection, schedule: Q01DX009 (ip), vehicle: Klucel (hydroxypropylcellulose) (HPC) 99 % of control | dose: 25.0 mg/kg/injection, schedule: Q01DX009 (ip), vehicle: Klucel (hydroxypropylcellulose) (HPC) 102 % of control | dose: 50.0 mg/kg/injection, schedule: Q01DX009 (ip), vehicle: Klucel (hydroxypropylcellulose) (HPC) 99 % of control and 112 % of control | dose: 100.0 mg/kg/injection, schedule: Q01DX009 (ip), vehicle: Klucel (hydroxypropylcellulose) (HPC) 103 % of control

Cc1cccc(C)c1NC(=S)NC(=O)c1ccccc1
inactive: [5] 100 % of control | [6] 98 % of control | [7] 100 % of control

CCN(CCOC(=O)Nc1ccc(Cl)cc1)C(=O)Nc1ccc(Cl)cc1
inactive: dose: 60.0 mg/kg/injection, schedule: Q01DX005 (ip), vehicle: Klucel + Tween-80 90 % of control | dose: 120.0 mg/kg/injection, schedule: Q01DX005 (ip), vehicle: Klucel + Tween-80 87 % of control | dose: 240.0 mg/kg/injection, schedule: Q01DX005 (ip), vehicle: Klucel + Tween-80 87 % of control

CCOC(=O)C1=NN(c2ccccc2)C(C)(C(=O)OC)C1 (stereo not given)
inactive: dose: 60.0 mg/kg/injection, schedule: Q01DX005 (ip), vehicle: saline with Tween-80 98 % of control | dose: 120.0 mg/kg/injection, schedule: Q01DX005 (ip), vehicle: saline with Tween-80 98 % of control | dose: 240.0 mg/kg/injection, schedule: Q01DX005 (ip), vehicle: saline with Tween-80 95 % of control

COc1ccc(-n2c(C)nc3c(cnn3C)c2=O)cc1
inactive: [8] 101 % of control and 96 % of control | [9] 100 % of control and 101 % of control and 97 % of control | dose: 100.0 mg/kg/injection, schedule: Q01DX005 (ip), vehicle: Klucel (hydroxypropylcellulose) (HPC) 108 % of control and 115 % of control and 95 % of control | dose: 200.0 mg/kg/injection, schedule: Q01DX005 (ip), vehicle: Klucel (hydroxypropylcellulose) (HPC) 99 % of control and 120 % of control and 97 % of control

COC(=O)C1CCC(c2ccccc2)(c2ccccc2)C1O.COC(=O)C1CCC(c2ccccc2)(c2ccccc2)C1O.[Cu] (stereo not given)
inactive: [1] 100 % of control | [2] 100 % of control | dose: 400.0 mg/kg/injection, schedule: Q01DX001 (ip), vehicle: Klucel (hydroxypropylcellulose) (HPC) 100 % of control

O=C(O)P(=O)(O)O
inactive: dose: 50.0 mg/kg/injection, schedule: Q01DX009 (ip), vehicle: water 95 % of control | dose: 100.0 mg/kg/injection, schedule: Q01DX009 (ip), vehicle: water 103 % of control | dose: 200.0 mg/kg/injection, schedule: Q01DX009 (ip), vehicle: water 100 % of control

CC(O)CNc1n[nH]c(=O)c2ccccc12 (stereo not given)
inactive: [5] 101 % of control | [6] 104 % of control | [7] 94 % of control
